The results in this text go back to patent US20250145608A1, “KRAS DEGRADING COMPOUNDS COMPRISING ANNULATED 2-AMINO-3-CYANO THIOPHENES” (Boehringer Ingelheim Int'l GmbH Corp., priority 2021, published 2025).

In general, IC50 refers to the midpoint of a concentration-inhibition curve. The low end stands for greater potency in that assay, the high end for weaker potency in that assay. The term DC50 denotes the midpoint of the concentration-degradation curve. Lower therefore signals a more potent degrader.

What all share (format): cell-based
The subject of one assay is AsPC-1 cells. Description: AsPC-1 CTG proliferation assay (120 h) (pancreatic cancer, G12D). The settings on record: Homo sapiens, ASPC1, AsPC-1 proliferation. Here is the method:
AsPC-1 CTG Proliferation Assay (120 h) (Pancreatic Cancer, G12D)
The CTG assay is designed to measure quantitatively the proliferation of AsPC-1 cells (ATCC […]), using the CellTiter Glow Assay Kit (Promega G7571). Cells are grown in RPMI medium (ATCC) supplemented with Fetal Calf Serum (Life Technologies, Gibco BRL, Cat. No. 10270-106). On “day 0” 2000 AsPC-1 cells are seeded in 60 μL RPMI ATCC+10% FCS+ Penstrep in a 384-well plate, flat and clear bottom (Greiner, PNr. 781091). Cells are then incubated in the plates at 37° C. in a CO2 incubator overnight. On day 1, compounds (10 mM stock in DMSO) are added with the ECHO acoustic liquid handler system (Beckman Coulter), including DMSO controls. Plates are incubated for 120 h, and cell viability is measured using CellTiter-Glo luminescent cell viability reagent (Promega product code G7570). Viability (stated as percent of control) is defined as relative luminescence units RLU of each well divided by the RLU of cells in DMSO controls. IC50 values are determined from viability measurements by non-linear regression using a four-parameter model.

A further assay deals with LOVO cells. Description: LOVO CTG proliferation assay (120 h) (CRC, G13D). As to conditions: Homo sapiens. On the procedure: LOVO CTG Proliferation Assay (120 h) (CRC, G13D)
(§1) LOVO cells (ATCC CCL-229) are dispensed into 384-well plates, flat and clear bottom (Greiner, PNr. 781091) at a density of 1000 cells per well in 60 μL DMEM (Sigma D6429)+10% Fetal Calf Serum (HyClone, PNr.: SH30084.03) and incubated at 37° C. in a CO2 incubator overnight. The next day, compounds (10 mM stock in DMSO) are added with the ECHO acoustic liquid handler system (Beckman Coulter), including DMSO controls. Plates are incubated for 120 h, and cell viability is measured using CellTiter-Glo luminescent cell viability reagent (Promega product code G7570). Viability (stated as percent of control) is defined as relative luminescence units RLU of each well divided by the RLU of cells in DMSO controls. IC50 values are determined from viability measurements by non-linear regression using a four-parameter model.

Another assay deals with T1, KRAS(G12D) (Homo sapiens, UniProt P01116, G12D).
T1 construct: introduced immediately downstream of the initiating Methionine codon of the endogenous KRAS locus; host or cells: GP5d-HiBit-KRAS(G12D), a CRISPR knock-in at the endogenous locus
T1 sequence (P01116 1-188 isoform P01116-2 G12D): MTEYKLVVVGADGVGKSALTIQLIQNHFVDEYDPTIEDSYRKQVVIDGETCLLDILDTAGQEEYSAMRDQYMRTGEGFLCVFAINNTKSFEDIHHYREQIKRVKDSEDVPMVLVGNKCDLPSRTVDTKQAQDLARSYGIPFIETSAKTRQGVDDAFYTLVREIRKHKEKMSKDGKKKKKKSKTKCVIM
In words: HiBit degradation assay in GP5d-HiBit-KRAS(G12D) cells (18 h; DC50, Dmax). In outline: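 GP5d cells carry an endogenous N-terminal HiBit tag on KRAS(G12D), knocked in by CRISPR. They were seeded overnight in DMEM/10% FCS, exposed to compound for 18 h at 37° C, then lysed for HiBit luminescence, normalised to DMSO. DC50 comes from a four-parameter logistic fit; Dmax is maximal degradation as % of control.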
Background: The HiBiT peptide binds its large partner to form an active luciferase.

In the next assay the test system is SK—CO-1 cells. Description: SK-CO-1 CTG proliferation assay (120 h) (CRC, G12V). The settings on record: Homo sapiens, SK-CO-1 proliferation. On the procedure:
SK—CO-1 CTG Proliferation Assay (120 h) (CRC, G12V)
as §1, with “SK—CO-1” for “LOVO”, “HTB-39)” for “CCL-229)”, “500” for “1000”, “EMEM” for “DMEM”, “M5650)+10%” for “D6429)+10%”

In the next assay the test system is SAS cells. In words: SAS CTG proliferation assay (120 h) (HNSCC, wt amplified). Here is the method: SAS CTG Proliferation Assay (120 h) (HNSCC, Wt Amplified)
as §1, with “SAS” for “LOVO”, “(JCRB0260)” for “(ATCC CCL-229)”, “300” for “1000”, “DMEM:F12 (Gibco 31330-038)+10%” for “DMEM (Sigma D6429)+10%”

Turning to `Cc1ncsc1-c1ccc([C@@H](NC(=O)[C@@H]2C[C@@H](O)CN2C(=O)[C@H](C(C)C)n2cc(OCCCCN3CCCN(c4nccc(-c5noc([C@@]6(C)CCCc7sc(N)c(C#N)c76)n5)n4)[C@@H](C)C3)nn2)[C@H](O)C(C)C)cc1` (single isomer, unassigned) [I-45], the IC50 in the assay with AsPC-1 cells was determined as 51.4 nM; with LOVO cells it was 43 nM; with SK—CO-1 cells, 33.3 nM; in the assay with SAS cells it was 1810 nM. In addition, the DC50 at KRAS(G12D) is 1.4 nM. For the same compound, the “Dmax 18 h” value at KRAS(G12D) is recorded as 93 % Ctrl.

As for `Cc1ncsc1-c1ccc(CNC(=O)[C@@H]2C[C@@H](O)CN2C(=O)[C@H](c2cc(OCCCN3CCCN(c4nccc(-c5noc([C@@]6(C)CCCc7sc(N)c(C#N)c76)n5)n4)[C@@H](C)C3)no2)C(C)C)cc1` (single isomer, unassigned) [I-24], the IC50 in the assay with AsPC-1 cells came to 1800 nM; in the assay on LOVO cells, 1950 nM; with SK—CO-1 cells it was 2220 nM; in the assay on SAS cells, 1310 nM. Moreover, at KRAS(G12D), the DC50 was found to be 200 nM. Moreover, at KRAS(G12D), the “Dmax 18 h” value was 81 % Ctrl.

On to `Cc1ncsc1-c1ccc(CNC(=O)[C@@H]2C[C@@H](O)CN2C(=O)[C@@H](c2cc(OCCCCN3CCCN(c4nccc(-c5noc([C@@]6(C)CCCc7sc(N)c(C#N)c76)n5)n4)[C@@H](C)C3)no2)C(C)C)cc1` (single isomer, unassigned) [I-27], for which the IC50 in the assay with AsPC-1 cells stood at 144 nM; in the assay on LOVO cells, 40.9 nM; in the assay with SK—CO-1 cells it was 51.7 nM; in the assay with SAS cells it was 94.6 nM. Moreover, on KRAS(G12D), the DC50 was 2.9 nM. Further, the “Dmax 18 h” value at KRAS(G12D) is listed as 93 % Ctrl.

Regarding `Cc1ncsc1-c1ccc([C@@H](NC(=O)[C@@H]2C[C@@H](O)CN2C(=O)[C@H](C(C)C)n2cc(OCCCCN3CCCN(c4nccc(-c5noc([C@@]6(C)CCCc7sc(N)c(C#N)c76)n5)n4)[C@@H](C)C3)nn2)[C@H](C)O)cc1` (single isomer, unassigned) [I-41], the IC50 with AsPC-1 cells amounted to 42 nM; with LOVO cells it was 29.3 nM; in the assay on SK—CO-1 cells, 22.6 nM; with SAS cells, 30.3 nM. On KRAS(G12D), the DC50 was found to be 1.6 nM. In addition, the “Dmax 18 h” value at KRAS(G12D) came out at 94 % Ctrl.

With `CC(C)C(C(=O)N1C[C@H](O)C[C@H]1C(=O)NCc1ccc(C#N)cc1)c1cc(OCCCCN2CCCN(c3nccc(-c4noc([C@@]5(C)CCCc6sc(N)c(C#N)c65)n4)n3)[C@@H](C)C2)no1` (stereo partly drawn) [I-16], the half-inhibitory concentration (IC50) with AsPC-1 cells came to 169 nM; with LOVO cells it was 1820 nM; in the assay on SK—CO-1 cells, 184 nM; in the assay on SAS cells it was 29.7 nM. Further, on KRAS(G12D), it took 3.9 nM to reach half-maximal degradation (DC50). Further, the “Dmax 18 h” value at KRAS(G12D) is given as 91 % Ctrl.

With `Cc1ncsc1-c1ccc([C@H](CO)NC(=O)[C@@H]2C[C@@H](O)CN2C(=O)[C@H](C(C)C)n2cc(OC(C)CCCN3CCCN(c4nccc(-c5noc([C@@]6(C)CCCc7sc(N)c(C#N)c76)n5)n4)[C@@H](C)C3)nn2)cc1` (stereo partly drawn) [I-31], the IC50 came out at 183 nM in the assay with AsPC-1 cells, 344 nM with LOVO cells, 132 nM in the assay with SK—CO-1 cells and 90 nM in the assay on SAS cells. The DC50 on KRAS(G12D) turned out to be 4.4 nM. In addition, at KRAS(G12D), the “Dmax 18 h” value is 93 % Ctrl.

Take `Cc1ncsc1-c1ccc([C@H](CO)NC(=O)[C@@H]2C[C@@H](O)CN2C(=O)[C@H](C(C)C)n2cc(OCCCCN3CCCN(c4nccc(-c5noc([C@@]6(C)CCCc7sc(N)c(C#N)c76)n5)n4)[C@@H](C)C3)nn2)cc1` [I-29]: the IC50 in the assay with AsPC-1 cells was 97.2 nM; in the assay with LOVO cells it was 44 nM; in the assay on SK—CO-1 cells, 24.3 nM; in the assay with SAS cells it was 548 nM. At KRAS(G12D), this compound registered a DC50 of 2 nM. In addition, the “Dmax 18 h” value at KRAS(G12D) is 93 % Ctrl.

In the case of `Cc1ncsc1-c1ccc([C@H](CCO)NC(=O)[C@@H]2C[C@@H](O)CN2C(=O)[C@H](C(C)C)n2cc(OCCCCN3CCCN(c4nccc(-c5noc([C@@]6(C)CCCc7sc(N)c(C#N)c76)n5)n4)[C@@H](C)C3)nn2)cc1` [I-38], the IC50 in the assay with AsPC-1 cells turned out to be 128 nM; in the assay on LOVO cells, 597 nM; in the assay on SK—CO-1 cells it was 117 nM; in the assay with SAS cells it was 58.1 nM. Further, half-maximal degradation on KRAS(G12D) (DC50) was put at 3.3 nM. The “Dmax 18 h” value at KRAS(G12D) is recorded as 93 % Ctrl.

For the compound `Cc1ncsc1-c1ccc([C@H](C)NC(=O)[C@@H]2C[C@@H](O)CN2C(=O)C(C(C)C)n2cc(OCCCCN3CCCN(c4nccc(-c5noc([C@@]6(C)CCCc7sc(N)c(C#N)c76)n5)n4)[C@@H](C)C3)nn2)cc1` (stereo partly drawn) [I-28], the IC50 stood at 72 nM in the assay with AsPC-1 cells, 649 nM with LOVO cells, 45 nM in the assay on SK—CO-1 cells and 58.3 nM in the assay on SAS cells. Further, the DC50 at KRAS(G12D) was 1.5 nM. Besides, the “Dmax 18 h” value on KRAS(G12D) was 93 % Ctrl.

In the case of `Cc1ncsc1-c1ccc([C@@H](NC(=O)[C@@H]2C[C@@H](O)CN2C(=O)[C@H](C(C)C)n2cc(OCCCN3CCCN(c4nccc(-c5noc([C@@]6(C)CCCc7sc(N)c(C#N)c76)n5)n4)[C@@H](C)C3)nn2)[C@H](O)C(C)C)cc1` (single isomer, unassigned) [I-43], the IC50 in the assay with AsPC-1 cells worked out at 52.1 nM; in the assay with LOVO cells it was 22.2 nM; with SK—CO-1 cells, 26.2 nM; with SAS cells it was 411 nM. Also, on KRAS(G12D), the DC50 amounted to 1.2 nM. For the same compound, the “Dmax 18 h” value on KRAS(G12D) is 93 % Ctrl.

`Cc1ncsc1-c1ccc([C@H](CO)NC(=O)[C@@H]2C[C@@H](O)CN2C(=O)[C@H](C(C)C)n2cc(OCCCC(C)N3CCCN(c4nccc(-c5noc([C@@]6(C)CCCc7sc(N)c(C#N)c76)n5)n4)[C@@H](C)C3)nn2)cc1` (stereo partly drawn) [I-30]: the IC50 with AsPC-1 cells is 69 nM; in the assay on LOVO cells, 86.4 nM; in the assay with SK—CO-1 cells, 29.7 nM; in the assay on SAS cells it was 15.2 nM. At KRAS(G12D), this compound had a DC50 of 1.4 nM. On KRAS(G12D), the “Dmax 18 h” value is recorded as 94 % Ctrl.

With `Cc1ncsc1-c1ccc(CNC(=O)[C@@H]2C[C@@H](O)CN2C(=O)[C@@H](c2cc(OCCCN3CCCN(c4nccc(-c5noc([C@@]6(C)CCCc7sc(N)c(C#N)c76)n5)n4)[C@@H](C)C3)no2)C(C)C)cc1` (single isomer, unassigned) [I-25], the IC50 in the assay on AsPC-1 cells was 93.4 nM; in the assay with LOVO cells it was 53.5 nM; in the assay on SK—CO-1 cells it was 57.3 nM; with SAS cells it was 17.8 nM. The same compound had a DC50 on KRAS(G12D) of 2.3 nM. Further, the “Dmax 18 h” value on KRAS(G12D) amounted to 94 % Ctrl.

Regarding `Cc1ncsc1-c1ccc(CNC(=O)[C@@H]2C[C@@H](O)CN2C(=O)C(c2cc(OCCCCN3CCCN(c4nccc(-c5cc([C@@]6(C)CCCc7sc(N)c(C#N)c76)on5)n4)[C@@H](C)C3)no2)C(C)C)cc1` (stereo partly drawn) [I-4], the IC50 in the assay with AsPC-1 cells worked out at 372 nM; in the assay with LOVO cells it was 425 nM; with SK—CO-1 cells it was 207 nM; with SAS cells, 628 nM. The compound further returned a DC50 on KRAS(G12D) of 4.3 nM. Besides, the “Dmax 18 h” value at KRAS(G12D) was found to be 94 % Ctrl.
